The source of these data is patent US7989650B2, “Therapeutic delivery of carbon monoxide to extracorporeal and isolated organs” (hemoCORM Limited, priority 2002, dated 2011).

The conditions of data set [1]: dissolved in DMSO; cited from earlier work.
Data set [2] deals with deoxymyoglobin (deoxy-Mb). The settings on record: cited from earlier work.
For data set [3], the system named is pre-contracted aortic rings. The settings on record: cited from earlier work.
The subject of data set [4] is isolated hearts from male Lewis rats. Nature of the data set: Ischaemia-reperfusion model in isolated Langendorff-perfused hearts. Set-up: species or system rat. As for the experimental part: Isolated hearts from male Lewis rats (300-350 g) were perfused according to the Langendorff technique as previously described by our group. Briefly, hearts were rapidly excised and perfused at constant flow (11 ml/min) with Krebs-Henseleit buffer (in mM: 119 NaCl, 4.7 KCl, 2.5 CaCl2, 1.66 MgSO4, 24.9 NaHCO3, 1.18 KH2PO4, 5.55 glucose, 2.00 sodium pyruvate, 0.5 EGTA) bubbled with 95% O2 and 5% CO2 at 37° C. (pH 7.4). Coronary perfusion pressure (CPP) was continuously measured by a pressure transducer (Grass Instruments, Astromed, RI, USA) connected to the aortic cannula. A latex balloon filled with saline was inserted into the left ventricle through the atrium and connected by a catheter to a second pressure transducer. The balloon was inflated to provide an initial end-diastolic pressure (EDP) of 10 mmHg. Both transducers were connected to a computer and data were acquired with BioPac™ instrumentation and analyzed with the accompanying AcqKnowledge™ software (BIOPAC System Inc.). Left ventricular developed pressure (LVDP), heart rate (HR), maximal contraction (+dP/dt) and relaxation (−dP/dt) rates, CPP and EDP were continuously recorded throughout the period of perfusion.
Isolated hearts were allowed to equilibrate at constant flow for 30 min and then made globally ischaemic by interrupting the buffer perfusion. Ischaemic hearts were kept at 37° C. in the water-jacketed chamber for 30 min and then reperfused for 60 min. All the hemodynamic parameters were continuously monitored throughout the experimental protocol as reported above. Krebs buffer was collected for 10 min from the pulmonary artery prior to the ischaemic event and in the last 10 min of reperfusion for creatine kinase (CK) analysis. At the end of reperfusion, hearts were stained to assess tissue viability using tetrazolium red. In additional experiments, hearts made ischaemic were infused for the first 10 min of reperfusion with CORM-3 or dCORM-3 (10 μM final concentration) via a syringe pump connected to the side arm of the aortic cannula. To assess a possible role of mitochondrial ATP-dependent potassium channels (KATP) in cardioprotection mediated by CORM-3, control hearts or hearts receiving CORM-3 were pre-treated for 10 min prior to ischaemia with […] (5-HD, 50 μM final concentration), a specific blocker of mitochondrial KATP.
Hearts from each experimental group (n=5) were stained for tissue viability at the end of the reperfusion period. Hearts were perfused through a side arm of the aortic cannula for 20 min with tetrazolium red (3% w/v) in Krebs Henseleit buffer at 37° C. The tetrazolium salt stains the viable myocardium brick red, whereas the infarcted tissue remains unstained and appears white. After staining, hearts were removed and stored in 2% formalin in the dark prior to analysis. Hearts were carefully cut into 2-mm thick sections, scanned into a computer using an AGFA Arcus® II scanner and the total ischaemic size was determined by volumetric analysis software (Scion Image®, Scion Corporation, MA, USA). Cardiac muscle damage was assessed by measuring the release of creatine kinase (CK) into the perfusate using a commercially available spectrophotometric assay kit (DG147-A) from Sigma Diagnostic (Poole, Dorset).

The test system of data set [5] is deoxymyoglobin (deoxy-Mb). Description: Detection of CO release: conversion of deoxymyoglobin to carbonmonoxy myoglobin (MbCO), spectrophotometric. Format: physicochemical. Here is the method: The release of CO from CORM-3 or dCOMR-3 was assessed spectrophotometrically by measuring the conversion of deoxymyoglobin (deoxy-Mb) to carbonmonoxy myoglobin (MbCO) as previously described. The amount of MbCO formed was quantified by measuring the absorbance at 540 nm (extinction coefficient=[…]). Myoglobin solutions (66 μmol/L final concentration) were prepared fresh by dissolving the protein in 0.04 M phosphate buffer (pH 6.8). Sodium dithionite (0.1%) was added to convert myoglobin to deoxy-Mb prior to each reading.
When CORM-3 was prepared in distilled water and then added to the phosphate buffer solution containing Mb, a spectrum characteristic of MbCO was rapidly detected (FIG. 1B).

The mark [6] stands for this setting: 10 μM infused for first 10 min of reperfusion, 30 min ischaemia, 60 min reperfusion.
The mark [7] stands for this setting: at the end of reperfusion, 10 μM infused for first 10 min of reperfusion.
Setting [8] is: before ischaemia, hearts later reperfused with CORM-3.

As for `[C-]#[O+].[C-]#[O+].[C-]#[O+].[C-]#[O+].[C-]#[O+].[C-]#[O+].[Cl][Ru][Cl].[Cl][Ru][Cl]` [[Ru(CO)3Cl2]2, Tricarbonyldichloro ruthenium(II) dimer], the “CO liberation on dissolution” value in data set [1] is on record as “CO is liberated into solution”.

With [Fe(SPh)2(2,2′-bipyridine)(CO)2], the “release of CO to myoglobin in solution” value in data set [2] is reported as “not to release CO to myoglobin in solution”. For the same compound, in data set [3], the “dilatation of pre-contracted aortic rings” value is recorded as “capable of promoting dilatation of pre-contracted aortic rings”.

Consider `NCC(=O)O.[CH+]=O.[CH+]=O.[CH+]=O.[Cl][Ru]` [CORM-3, tricarbonylchloro-(glycinato)ruthenium(II)], for which, in data set [4] (setting [6]), the “maximal rate of contraction (+dP/dt), after ischaemia-reperfusion” value is recorded as 3726±542 mmHg/s and the “maximal rate of relaxation (−dP/dt), after ischaemia-reperfusion” value is listed as 2207±258 mmHg/s. Moreover, the “increase in left ventricular-developed pressure (LVDP) compared to baseline” value in data set [4] (after 60 min reperfusion, 10 μM infused for first 10 min of reperfusion, 30 min global ischaemia) is listed as 44%. Moreover, in data set [4] (setting [7]), the “increase in coronary perfusion pressure (CPP)” value came out at 13±2.2 mmHg and the “increase in end diastolic pressure (EDP)” value was 3±1.8 mmHg. Besides, in data set [4] (setting [8]), the “maximal rate of contraction (+dP/dt), baseline” value was 2099±99 mmHg/s and the “maximal rate of relaxation (−dP/dt), baseline” value is on record as 1432±149 mmHg/s. Moreover, the “creatine kinase (CK) activity in buffer, before ischaemia” value in data set [4] (buffer collected 10 min prior to ischaemia, hearts later reperfused with CORM-3) came to 6.5±2.3 U/L. Moreover, the “infarct size (tetrazolium red staining)” value in data set [4] (end of reperfusion, 10 μM infused for first 10 min of reperfusion) came out at 2.3±0.6%. Also, in data set [4] (hearts pre-treated 10 min prior to ischaemia with 5-HD 50 μM, CORM-3 10 μM at reperfusion), the “protective effects on myocardial contractility (LVDP, +dP/dt, −dP/dt) and on EDP and CPP increases, with 5-HD pre-treatment” value is recorded as “totally abolished”. For the same compound, the “creatine kinase (CK) activity in buffer, after reperfusion” value in data set [4] (last 10 min of reperfusion, 10 μM infused for first 10 min of reperfusion) was determined as 19.9±5.3 U/L. Also, the “CO liberated per mole of compound” value in data set [5] (CORM-3 prepared in distilled water, added to phosphate buffer containing Mb) came out at 1 mol. Also, in data set [5] (addition of 40 μM CORM-3 prepared in distilled water, myoglobin 66 μmol/L, 0.04 M phosphate buffer pH 6.8), the “formation of MbCO” value amounted to 36.4 ± 0.9 µM. Moreover, the “ability to liberate CO (conversion of Mb to MbCO) after standing in water” value in data set [5] (dissolved in water, left 24 h at room temperature) is listed as “retained its full ability to liberate CO”. In data set [5] (prepared in Krebs-Henseleit buffer, over time), the “stability / ability to release CO in Krebs-Henseleit buffer” value was “gradually decomposed over time and lost its ability to release CO”.
